# Test results taken from ChEMBL document CHEMBL4138123, “Design, synthesis and biological evaluation of novel pyrazolochalcones as potential modulators of PI3K/Akt/mTOR pathway and inducers of apoptosis in breast cancer cells” (Eur J Med Chem, 2017).
# Columns and labels:
# Format in all cases: functional
# [1] = test system: NCI-H460; experiment: Cytotoxicity against human NCI-H460 cells assessed as growth inhibition after 48 hrs by sulforhodamine B assay; details: NCI-H460, 48 h
# [2] = test system: RPMI-8226; experiment: Cytotoxicity against human RPMI8226 cells assessed as cell growth at 0.1 uM after 48 hrs by sulforhodamine B assay relative to control; details: RPMI-8226, 48 h, read-out: Activity
# [3] = test system: UO-31; experiment: Cytotoxicity against human UO31 cells assessed as cell growth at 0.1 uM after 48 hrs by sulforhodamine B assay relative to control; details: UO-31, 48 h, read-out: Activity
# [4] = test system: OVCAR-3; experiment: Cytotoxicity against human OVCAR3 cells assessed as growth inhibition after 48 hrs by sulforhodamine B assay; details: OVCAR-3, 48 h
# [5] = test system: U-251; experiment: Cytotoxicity against human U251 cells assessed as cell growth at 100 uM after 48 hrs by sulforhodamine B assay relative to control; details: U-251, 48 h, read-out: Activity
# [6] = test system: ACHN; experiment: Cytotoxicity against human ACHN cells assessed as cell growth at 0.01 uM after 48 hrs by sulforhodamine B assay relative to control; details: read-out: Activity
# [7] = test system: MCF7; experiment: Cytotoxicity against human MCF7 cells assessed as cell growth at 100 uM after 48 hrs by sulforhodamine B assay relative to control; details: MCF7, 48 h, read-out: Activity
# [8] = test system: RXF 393; experiment: Cytotoxicity against human RXF393 cells assessed as growth inhibition after 48 hrs by sulforhodamine B assay; details: RXF 393, 48 h
# [9] = test system: NCI-H522; experiment: Cytotoxicity against human NCI-H522 cells assessed as cell growth at 0.1 uM after 48 hrs by sulforhodamine B assay relative to control; details: NCI-H522, 48 h, read-out: Activity
# [10] = test system: SNB-19; experiment: Cytotoxicity against human SNB19 cells assessed as cell growth at 0.01 uM after 48 hrs by sulforhodamine B assay relative to control; details: SNB-19, 48 h, read-out: Activity
# [11] = test system: UACC-62; experiment: Cytotoxicity against human UACC62 cells assessed as growth inhibition after 48 hrs by sulforhodamine B assay; details: UACC-62, 48 h
# [12] = test system: 786-0; experiment: Cytotoxicity against human 786-0 cells assessed as growth inhibition after 48 hrs by sulforhodamine B assay; details: 786-0, 48 h
# [13] = test system: K562; experiment: Cytotoxicity against human K562 cells assessed as cell growth at 0.01 uM after 48 hrs by sulforhodamine B assay relative to control; details: K562, 48 h, read-out: Activity
# [14] = test system: MDA-MB-231; experiment: Cytotoxicity against human MDA-MB-231 cells assessed as cell growth at 1 uM after 48 hrs by sulforhodamine B assay relative to control; details: MDA-MB-231, 48 h, read-out: Activity
# [15] = test system: SF-268; experiment: Cytotoxicity against human SF268 cells assessed as cell growth at 10 uM after 48 hrs by sulforhodamine B assay relative to control; details: SF-268, 48 h, read-out: Activity
# [16] = test system: MDA-MB-231; experiment: Cytotoxicity against human MDA-MB-231 cells assessed as growth inhibition after 48 hrs by sulforhodamine B assay; details: MDA-MB-231, 48 h
# [17] = test system: SK-MEL-28; experiment: Cytotoxicity against human SK-MEL-28 cells assessed as growth inhibition after 48 hrs by sulforhodamine B assay; details: SK-MEL-28, 48 h
# [18] = test system: OVCAR-5; experiment: Cytotoxicity against human OVCAR5 cells assessed as cell growth at 10 uM after 48 hrs by sulforhodamine B assay relative to control; details: OVCAR-5, 48 h, read-out: Activity
# [19] = test system: SW-620; experiment: Cytotoxicity against human SW620 cells assessed as cell growth at 1 uM after 48 hrs by sulforhodamine B assay relative to control; details: SW-620, 48 h, read-out: Activity
# [20] = test system: SF-539; experiment: Cytotoxicity against human SF539 cells assessed as cell growth at 0.1 uM after 48 hrs by sulforhodamine B assay relative to control; details: SF-539, 48 h, read-out: Activity
# [21] = test system: MDA-MB-435; experiment: Cytotoxicity against human MDA-MB-435 cells assessed as cell growth at 0.1 uM after 48 hrs by sulforhodamine B assay relative to control; details: MDA-MB-435, 48 h, read-out: Activity
# [22] = test system: HCT-116; experiment: Cytotoxicity against human HCT116 cells assessed as cell growth at 0.01 uM after 48 hrs by sulforhodamine B assay relative to control; details: HCT-116, 48 h, read-out: Activity
# [23] = test system: CCRF-CEM; experiment: Cytotoxicity against human CCRF-CEM cells assessed as cell growth at 100 uM after 48 hrs by sulforhodamine B assay relative to control; details: read-out: Activity
# [24] = test system: SK-MEL-5; experiment: Cytotoxicity against human SK-MEL-5 cells assessed as cell growth at 0.01 uM after 48 hrs by sulforhodamine B assay relative to control; details: SK-MEL-5, 48 h, read-out: Activity
# [25] = test system: HCC 2998; experiment: Cytotoxicity against human HCC2998 cells assessed as cell growth at 100 uM after 48 hrs by sulforhodamine B assay relative to control; details: HCC 2998, 48 h, read-out: Activity
# [26] = test system: CAKI-1; experiment: Cytotoxicity against human Caki1 cells assessed as cell growth at 10 uM after 48 hrs by sulforhodamine B assay relative to control; details: CAKI-1, 48 h, read-out: Activity
# [27] = test system: OVCAR-5; experiment: Cytotoxicity against human OVCAR5 cells assessed as cell growth at 0.1 uM after 48 hrs by sulforhodamine B assay relative to control; details: OVCAR-5, 48 h, read-out: Activity
# [28] = test system: SF-539; experiment: Cytotoxicity against human SF539 cells assessed as growth inhibition after 48 hrs by sulforhodamine B assay; details: SF-539, 48 h
# [29] = test system: A549; experiment: Cytotoxicity against human A549/ATCC cells assessed as cell growth at 1 uM after 48 hrs by sulforhodamine B assay relative to control; details: A549, 48 h, read-out: Activity
# [30] = test system: UACC-257; experiment: Cytotoxicity against human UACC257 cells assessed as cell growth at 0.01 uM after 48 hrs by sulforhodamine B assay relative to control; details: UACC-257, 48 h, read-out: Activity
# [31] = test system: MOLT-4; experiment: Cytotoxicity against human MOLT4 cells assessed as growth inhibition after 48 hrs by sulforhodamine B assay; details: MOLT-4, 48 h; for CC50: read-out: LC50 (the source's name)
# [32] = test system: NCI-H522; experiment: Cytotoxicity against human NCI-H522 cells assessed as cell growth at 100 uM after 48 hrs by sulforhodamine B assay relative to control; details: NCI-H522, 48 h, read-out: Activity
# [33] = test system: HCC 2998; experiment: Cytotoxicity against human HCC2998 cells assessed as cell growth at 10 uM after 48 hrs by sulforhodamine B assay relative to control; details: HCC 2998, 48 h, read-out: Activity
# [34] = test system: SN12C; experiment: Cytotoxicity against human SN12C cells assessed as cell growth at 0.01 uM after 48 hrs by sulforhodamine B assay relative to control; details: read-out: Activity
compound,measurement,setting,value
COc1ccc(C(=O)/C=C/c2cc(-c3cc(OC)c(OC)c(OC)c3)n[nH]2)cc1OC,LC50,[1],7.86 µM
same,TGI,[1],3.33 µM
same,growth at 0.1 µM,[2],79%
same,growth at 0.1 µM,[3],87%
same,LC50,[4],5.97 µM
same,TGI,[4],3.17 µM
same,growth at 100 µM,[5],-99%
same,growth at 0.01 µM,[6],101%
same,growth at 100 µM,[7],-66%
same,LC50 (concentration killing 50% of cells),[8],5.23 µM
same,TGI,[8],2.66 µM
same,growth at 0.1 µM,[9],91%
same,growth at 0.01 µM,[10],91%
same,LC50,[11],5.98 µM
same,TGI,[11],3.22 µM
same,LC50,[12],5.82 µM
same,TGI,[12],2.86 µM
same,growth at 0.01 µM,[13],96%
same,growth at 1 µM,[14],77%
same,growth at 10 µM,[15],-60%
same,LC50,[16],6.32 µM
same,TGI,[16],3.06 µM
same,LC50,[17],6.25 µM
same,TGI,[17],3.34 µM
same,growth at 10 µM,[18],-93%
same,growth at 1 µM,[19],70%
same,growth at 0.1 µM,[20],98%
same,growth at 0.1 µM,[21],92%
same,growth at 0.01 µM,[22],99%
same,growth at 100 µM,[23],-15%
same,growth at 0.01 µM,[24],97%
same,growth at 100 µM,[25],-86%
same,growth at 10 µM,[26],-33%
same,growth at 0.1 µM,[27],88%
same,GI50,[28],1.27 µM
same,LC50 (concentration killing 50% of cells),[28],5.31 µM
same,TGI,[28],2.6 µM
same,growth at 1 µM,[29],84%
same,growth at 0.01 µM,[30],85%
same,TGI,[31],5.56 µM
same,CC50,[31],> 100 µM
same,growth at 100 µM,[32],-97%
same,growth at 10 µM,[33],-85%
same,growth at 0.01 µM,[34],99%
COc1cc(-c2cc(/C=C/C(=O)c3ccc4c(c3)OCO4)[nH]n2)cc(OC)c1OC,LC50,[1],> 100 µM
same,TGI,[1],5.1 µM
same,growth at 0.1 µM,[2],83%
same,growth at 0.1 µM,[3],83%
same,LC50,[4],> 100 µM
same,TGI,[4],12.3 µM
same,growth at 100 µM,[5],-56%
same,growth at 0.01 µM,[6],108%
same,growth at 100 µM,[7],3%
same,LC50 (concentration killing 50% of cells),[8],5.55 µM
same,TGI,[8],2.87 µM
same,growth at 0.1 µM,[9],92%
same,growth at 0.01 µM,[10],94%
same,LC50,[11],> 100 µM
same,TGI,[11],> 100 µM
same,LC50,[12],> 100 µM
same,TGI,[12],5.82 µM
same,growth at 0.01 µM,[13],100%
same,growth at 1 µM,[14],86%
same,growth at 10 µM,[15],5%
same,LC50,[16],> 100 µM
same,TGI,[16],> 100 µM
same,LC50,[17],> 100 µM
same,TGI,[17],7.34 µM
same,growth at 10 µM,[18],16%
same,growth at 1 µM,[19],88%
same,growth at 0.1 µM,[20],99%
same,growth at 0.1 µM,[21],94%
same,growth at 0.01 µM,[22],104%
same,growth at 100 µM,[23],-13%
same,growth at 0.01 µM,[24],98%
same,growth at 100 µM,[25],-50%
same,growth at 10 µM,[26],35%
same,growth at 0.1 µM,[27],91%
same,LC50 (concentration killing 50% of cells),[28],25.4 µM
same,TGI,[28],5.73 µM
same,growth at 1 µM,[29],92%
same,growth at 0.01 µM,[30],86%
same,TGI,[31],9.15 µM
same,CC50,[31],> 100 µM
same,growth at 100 µM,[32],-97%
same,growth at 10 µM,[33],-87%
same,growth at 0.01 µM,[34],97%
COc1cc(C(=O)/C=C/c2cc(-c3ccc4c(c3)OCO4)n[nH]2)cc(OC)c1OC,GI50,[1],1.81 µM
same,LC50,[1],7.84 µM
same,TGI,[1],3.77 µM
same,growth at 0.1 µM,[2],93%
same,growth at 0.1 µM,[3],82%
same,GI50,[4],1.71 µM
same,LC50,[4],7.17 µM
same,TGI,[4],3.5 µM
same,growth at 100 µM,[5],-98%
same,growth at 0.01 µM,[6],102%
same,growth at 100 µM,[7],-69%
same,GI50,[8],1.31 µM
same,LC50 (concentration killing 50% of cells),[8],6.59 µM
same,TGI,[8],2.94 µM
same,growth at 0.1 µM,[9],90%
same,growth at 0.01 µM,[10],92%
same,GI50,[11],1.81 µM
same,LC50,[11],8.36 µM
same,TGI,[11],3.89 µM
same,GI50,[12],1.84 µM
same,LC50,[12],6.51 µM
same,TGI,[12],3.46 µM
same,growth at 0.01 µM,[13],86%
same,growth at 1 µM,[14],83%
same,growth at 10 µM,[15],-12%
same,GI50,[16],2.08 µM
same,LC50,[16],23.8 µM
same,TGI,[16],6.23 µM
same,GI50,[17],1.92 µM
same,LC50,[17],9.13 µM
same,TGI,[17],4.18 µM
same,growth at 10 µM,[18],-2%
same,growth at 1 µM,[19],78%
same,growth at 0.1 µM,[20],97%
same,growth at 0.1 µM,[21],95%
same,growth at 0.01 µM,[22],101%
same,growth at 100 µM,[23],-20%
same,growth at 0.01 µM,[24],99%
same,growth at 100 µM,[25],-95%
same,growth at 10 µM,[26],-27%
same,growth at 0.1 µM,[27],99%
same,GI50,[28],1.33 µM
same,LC50 (concentration killing 50% of cells),[28],6.65 µM
same,TGI,[28],2.98 µM
same,growth at 1 µM,[29],85%
same,growth at 0.01 µM,[30],98%
same,GI50,[31],2.71 µM
same,TGI,[31],8.36 µM
same,CC50,[31],> 100 µM
same,growth at 100 µM,[32],-94%
same,growth at 10 µM,[33],-64%
same,growth at 0.01 µM,[34],98%
